One compound from ChEMBL document CHEMBL2062415, “Steroids from Commiphora mukul display antiproliferative effect against human prostate cancer PC3 cells via induction of apoptosis” (Bioorg Med Chem Lett, 2012) can be followed below.

The test system of assay [1] is MCF7. Description: Cytotoxicity against human MCF7 cells after 24 hrs by MTT assay. It counts as functional, cell-based. The settings on record: MCF7, 24 h.
For assay [2], the system named is PC-3. Description: Induction of apoptosis in human PC3 cells assessed as early apoptotic cells at 20 uM after 48 hrs by annexinV/propidium iodide staining-based FITC analysis relative to control. It is filed as functional.
Assay [3] relates to MCF7. Briefly: Induction of apoptosis in human MCF7 cells assessed as late apoptotic cells at 5 uM after 48 hrs by annexinV/propidium iodide staining-based FITC analysis (reference value: 3.57%). It counts as functional.
Assay [4] has as its system MCF7. Briefly: Induction of apoptosis in human MCF7 cells assessed as early apoptotic cells at 20 uM after 48 hrs by annexinV/propidium iodide staining-based FITC analysis (reference value: 5.48%). It is filed as functional.
Assay [5] deals with K562. Briefly: Induction of apoptosis in human K562 cells assessed as late apoptotic cells at 5 uM after 48 hrs by annexinV/propidium iodide staining-based FITC analysis (reference value: 2.55%). It counts as functional.
For assay [6], the system named is K562. Briefly: Induction of apoptosis in human K562 cells assessed as early apoptotic cells at 10 uM after 48 hrs by annexinV/propidium iodide staining-based FITC analysis (reference value: 2.08%). It is filed as functional.
Assay [7] relates to K562. Briefly: Induction of apoptosis in human K562 cells assessed as necrotic cells at 10 uM after 48 hrs by annexinV/propidium iodide staining-based FITC analysis (reference value: 1.19%). It is filed as functional.
Assay [8] has as its system PC-3. Description: Cell cycle arrest in human PC3 cells assessed as accumulation at S phase at 10 uM after 48 hrs by propidium iodide staining-based flow cytometric analysis relative to control. It counts as functional.
The subject of assay [9] is PC-3. Description: Cell cycle arrest in human PC3 cells assessed as accumulation at G2/M phase at 20 uM after 48 hrs by propidium iodide staining-based flow cytometric analysis relative to control. It is filed as functional. (A flow cytometer gives signals particle by particle.)
Assay [10] concerns DU-145. Briefly: Induction of apoptosis in human DU145 cells assessed as accumulation at G0/G1 phase at 20 uM after 48 hrs by propidium iodide staining-based flow cytometric analysis (reference value: 72.11%). It counts as functional.
Assay [11] has as its system DU-145. Briefly: Induction of apoptosis in human DU145 cells assessed as accumulation at G2/M phase at 20 uM after 48 hrs by propidium iodide staining-based flow cytometric analysis (reference value: 16.14%). It counts as functional.
The test system of assay [12] is DU-145. Briefly: Induction of apoptosis in human DU145 cells assessed as accumulation at G0/G1 phase at 40 uM after 48 hrs by propidium iodide staining-based flow cytometric analysis (reference value: 72.11%). It counts as functional.
Assay [13] has as its system K562. Briefly: Induction of apoptosis in human K562 cells assessed as accumulation at S phase at 1 uM after 48 hrs by propidium iodide staining-based flow cytometric analysis (reference value: 45.67%). It counts as functional.
Assay [14] has as its system K562. Description: Induction of apoptosis in human K562 cells assessed as accumulation at G2/M phase at 1 uM after 48 hrs by propidium iodide staining-based flow cytometric analysis (reference value: 15.72%). It is filed as functional.

For orientation: IC50 means the concentration needed to halve the response being measured. Low values mean greater potency in that assay, high ones weaker potency in that assay.

Regarding `CC[C@H](/C=C/[C@@H](C)[C@H]1CC[C@H]2[C@H]3[C@H]([C@H](O)C[C@]12C)[C@@]1(C)CC[C@H](O)CC1=C[C@H]3O)C(C)C`, in assay [1], the IC50 was 9.04 µM. The Activity in assay [2] was 3.27%; in assay [3] it was 3.47%; in [4], 9.91%; in assay [5], 1.91%; in assay [6] it was 6.1%; in [7], 0.78%. In addition, the Activity in assay [8] was 23.27%; in assay [9], 29.84%; in [10] it was 67.88%; in assay [11], 20.74%; in assay [12], 46.47%; in assay [13], 45.77%. Further, the Activity in [14] is given as 13.08%.
